One assay deals with T1, JAZ2 protein (Arabidopsis thaliana, UniProt O04197+Q9S7M2).
T1 construct: expressed in transfected cells
T1 sequence (Q9S7M2 1-249): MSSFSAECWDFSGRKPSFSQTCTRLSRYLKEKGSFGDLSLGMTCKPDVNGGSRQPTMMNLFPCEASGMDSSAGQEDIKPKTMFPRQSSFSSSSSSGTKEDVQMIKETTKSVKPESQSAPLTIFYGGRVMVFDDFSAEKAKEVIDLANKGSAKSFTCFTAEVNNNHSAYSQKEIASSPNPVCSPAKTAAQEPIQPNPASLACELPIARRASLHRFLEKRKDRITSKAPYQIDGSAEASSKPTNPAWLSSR
T1 sequence (O04197 1-592): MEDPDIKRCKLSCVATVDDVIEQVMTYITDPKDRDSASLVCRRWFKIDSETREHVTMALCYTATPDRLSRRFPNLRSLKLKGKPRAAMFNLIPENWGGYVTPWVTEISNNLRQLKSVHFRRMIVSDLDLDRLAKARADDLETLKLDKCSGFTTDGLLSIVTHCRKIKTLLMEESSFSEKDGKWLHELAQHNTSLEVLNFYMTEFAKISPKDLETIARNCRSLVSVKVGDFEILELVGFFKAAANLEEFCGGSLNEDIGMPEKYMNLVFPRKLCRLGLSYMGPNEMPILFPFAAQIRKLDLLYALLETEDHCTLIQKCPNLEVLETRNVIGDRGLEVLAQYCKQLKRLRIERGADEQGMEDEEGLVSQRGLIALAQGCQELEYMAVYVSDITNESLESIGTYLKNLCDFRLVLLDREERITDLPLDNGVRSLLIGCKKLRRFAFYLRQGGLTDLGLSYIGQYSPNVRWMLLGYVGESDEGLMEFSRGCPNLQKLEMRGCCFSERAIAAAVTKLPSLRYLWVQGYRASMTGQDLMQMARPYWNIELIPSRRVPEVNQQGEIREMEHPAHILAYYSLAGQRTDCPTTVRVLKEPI
T1 sequence (Q39255 1-160 partner): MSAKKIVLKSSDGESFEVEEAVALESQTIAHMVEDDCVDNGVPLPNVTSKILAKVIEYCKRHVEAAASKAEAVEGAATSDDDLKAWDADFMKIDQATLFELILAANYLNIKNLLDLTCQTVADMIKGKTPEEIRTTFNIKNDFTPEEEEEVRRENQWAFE
Kind of assay: JAZ2 protein stability (35S JAZ2-GUS staining). In kind it is cell-based. The settings on record: JAZ2-GUS transgenic seedlings, 3 h. The procedure: For JAZ promoter:GUS expression experiments, five to seven days-old seedlings were treated with mock solution or 50 μM JA for 2 h and GUS stained as previously described (Fernandez-Calvo, P. et al. Plant Cell. 2011; 23(2): 701-715). For JAZ2 protein stability experiments, seven to nine days-old seedlings were treated with mock solution or 50 nM COR for 3 h. Then, samples were placed in staining solution containing 50 mM phosphate buffer, pH 7, 0.1% (v/v) Triton X-100 (Sigma-Aldrich), 2 mM 5-bromo-4-chloro-3-indolyl b-D glucuronic acid (X-Gluc, Glycosynth), 1 mM potassium-ferrocyanide (Sigma-Aldrich), and 1 mM potassium-ferricyanide (Sigma-Aldrich) and incubated at 37° C. overnight. After staining, the tissue was soaked several times in 75% ethanol and kept in 5% glycerol until being photographed with a Leica DMR UV/VIS microscope.

In a further assay the test system is stomata guard cells. Description: Stomatal aperture measurements (MAMP-induced closure, COR-induced reopening). Type of assay: cell-based, Arabidopsis. The settings on record: leaves incubated with MAMPs and 2 μM COR simultaneously. The procedure:
Whole leaves from 4- to 6-week-old Arabidopsis plants were collected and exposed to white light for 1.30 hours while floating in a solution containing 50 mM KCl, 10 μm CaCl2, and 10 mm MES-KOH pH=6.1 (opening stomata buffer) with moderate shaking (50 rpm) to induce homogenous stomatal aperture among all Arabidopsis lines to compare. To do the MAMP-induced closure assays, the previous solution was removed and whole leaves were immersed in opening stomata buffer containing Pto DC3000 MAMP extracts at OD600=1,5 (7,5×10^8 cfu/ml), 2 μM of coronatine or a mock solution. Samples were further incubated under the same previous conditions for 4-5 hours. Then, leaves were rapidly peeled and abaxial epidermal peels were placed on cover slips and observed with a microscope (Leica DMR). Stomatal aperture (width/length) was measured using ImageJ software. Error bars represent standard error of the mean (SEM) (n=20). Stomatal experiments were repeated at least three independent times and representative results are shown.
We next analyzed the ability of JAZ2-3 to close stomata upon microbial perception and reopen it in the presence of COR. […] Typically, Pto DC3000 MAMPs were used at optical density at 600 nm OD600=1,5 (7,5×10^8 cfu/ml) for incubation with leaves (Stomatal Aperture Measurements) or Arabidopsis seedlings (Quantitative RT-PCR). […]

The next assay concerns JAZ2 promoter. Kind of assay: pJAZ2:GUS promoter expression (GUS staining). In kind it is cell-based, Arabidopsis. To be noted: 50 μM JA, 2 h, young seedlings. The source says:
(§1) Transgenic Arabidopsis lines expressing pJAZ:GUS promoter fusions were obtained by cloning the corresponding pJAZ PCR products (pJAZ1 fw cacc[…] [SEQ ID NO: 29]; pJAZ1 rev […] [SEQ ID NO: 30]; pJAZ2 fw cacc[…] [SEQ ID NO: 31]; pJAZ2 rev […] [SEQ ID NO: 32]; pJAZ3 fw cacc[…] [SEQ ID NO: 33]; pJAZ3 rev […] [SEQ ID NO: 34]) into the pENTR™/D-TOPO® system (Invitrogen) and then transferring them to pGWB3. Agrobacterium strain GV3101, containing these constructs, was used to transform Col-0 plants by floral dipping (Clough, S. J. and Bent, A. F. Plant J. 1998, 16(6): 735-743). Several transgenic lines were checked for Kanamycin and Hygromycin resistance and lines carrying one insertion were driven to homozygosis and used for further analysis. pJAZ2:GUS in coi1-30 background was generated by crossing the corresponding parental single homozygous lines. Arabidopsis lines expressing pMYC3:GUS and pMYC4:GUS promoter fusions, were previously reported (Fernandez-Calvo, P. et al. Plant Cell. 2011, 23(2): 701-715). The lines JAZ2-3 (RIKEN_ 13-5433-1) and JAZ2ΔJas (GABI_169B06) were obtained from the Nottingham Arabidopsis Stock Centre. The line JAZ1ΔJas (SEQ ID NO: 61) was obtained from an Arabidopsis activation tagging population (Weigel, D. et al. Plant Physiol. 2000, 122(4): 1003-1013). […]

The test system of a further assay is JAZ1 promoter. Kind of assay: pJAZ1:GUS promoter expression (GUS staining). In kind it is cell-based, Arabidopsis. The settings on record: 50 μM JA, 2 h.
From the text: as §1

Bounds are passed on as bounds.

We go through two molecules from patent US20190292559A1, “NUCLEOTIDE SEQUENCE FOR IMPROVING RESISTANCE AGAINST PLANT PATHOGENS” (CONSEJO SUPERIOR DE INVESTIGACIONES CIENTIFICAS (CSIS), priority 2016, published 2019).

For `CC[C@H]1C=C(C(=O)N[C@@]2(C(=O)O)C[C@@H]2CC)[C@H]2CCC(=O)[C@H]2C1` [COR, coronatine], the “COR concentration inducing rapid degradation of JAZ2 protein at guard cells” value at JAZ2 protein is listed as at most 50 nM. For the same molecule, the COR-induced stomata reopening result in the assay on stomata guard cells was “triggered COR-induced stomata reopening in JAZ2-3 and WT plants, but not in coi1-30”.
In the case of `CC/C=C\C[C@H]1C(=O)CC[C@@H]1CC(=O)O` [JA, jasmonic acid], in the assay on JAZ2 promoter, the “JAZ2 expression (pJAZ2:GUS) after JA treatment” value was “induced it in roots and mesophyll cells of young seedlings”. For the same molecule, the “JAZ1 expression (pJAZ1:GUS) after JA treatment” value in the assay with JAZ1 promoter was “strongly induced JAZ1 in roots and mesophyll cells”.
